From patent publication US20250129069A1, “TRIAZOLO WRN INHIBITORS” (Nimbus Wadjet, Inc., priority 2023, published 2025)
Where two headings read alike, the source gives them in different places.

Assays:
[1] = biological target: human Werner helicase (WRN, amino acids 517-1235 with L1074F point mutation) (Homo sapiens (Human), UniProt Q14191, L1074F); test: WRN (BV08) ADP-Glo assay; type: biochemical; settings: human WRN (aa 517-1235, L1074F), read-out: ADP-Glo_hWRN_IC50
How it was run: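 ADP-Glo luminescence read after 60 min, 25 °C reaction of 0.15 nM WRN (517-1235, L1074F, Sf9-expressed, tag removed) with 0.1 nM DNA duplex and 5 μM ATP, following 15 min compound preincubation; 20 mM Bicine pH 7.5, 1% DMSO. IC50 from 3- or 4-parameter fit of % inhibition.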

[2] = test system: p21 induction in HCT 116 cells; test: p21 induction in cells (In-Cell Western, p21/GAPDH ratio); type: cell-based; settings: 24 h compound incubation, read-out: p21_EC50
How it was run: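 EC50 values come from nonlinear fits of percent activation, defined by the 800/700 nm p21-to-GAPDH ratio scaled between DMSO (low) and internal WRN inhibitor (high) controls. In-Cell Western read after 24 h compound exposure of HCT 116 cells at 37° C. Duplicate 11-point series, 2-fold steps, usually starting at 10 μM.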

human Werner helicase (WRN, amino acids 517-1235 with L1074F point mutation), sequence (Q14191 other isoform, or with tags, fused parts or gaps L1074F (already in the parent)): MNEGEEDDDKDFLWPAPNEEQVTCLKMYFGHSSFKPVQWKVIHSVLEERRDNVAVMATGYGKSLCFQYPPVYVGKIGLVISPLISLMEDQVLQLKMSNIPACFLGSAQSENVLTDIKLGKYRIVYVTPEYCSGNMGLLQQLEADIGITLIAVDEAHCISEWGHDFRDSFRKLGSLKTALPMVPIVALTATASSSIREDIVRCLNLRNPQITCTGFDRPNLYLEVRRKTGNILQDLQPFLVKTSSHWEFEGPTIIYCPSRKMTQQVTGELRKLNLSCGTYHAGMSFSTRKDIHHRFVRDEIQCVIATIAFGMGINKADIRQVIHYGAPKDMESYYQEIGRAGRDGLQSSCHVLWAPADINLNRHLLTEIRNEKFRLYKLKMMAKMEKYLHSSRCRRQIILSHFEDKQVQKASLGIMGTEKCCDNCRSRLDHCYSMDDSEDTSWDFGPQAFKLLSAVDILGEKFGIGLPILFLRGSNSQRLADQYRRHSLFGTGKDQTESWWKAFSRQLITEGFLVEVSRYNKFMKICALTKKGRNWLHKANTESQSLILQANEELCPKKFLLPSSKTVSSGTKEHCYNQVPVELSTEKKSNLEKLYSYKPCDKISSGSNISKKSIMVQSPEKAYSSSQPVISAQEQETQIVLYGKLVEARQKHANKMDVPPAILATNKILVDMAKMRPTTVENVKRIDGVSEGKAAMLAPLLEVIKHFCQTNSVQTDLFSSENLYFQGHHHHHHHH

SMILES	IC50 [1] [nM]	EC50 [2] [nM]	EC50 ([2]; Homo sapiens) [nM]
CCc1c(N2CCN(C(=O)c3ncnc(C)c3O)[C@H]3CC[C@@H]32)c(=O)c2nn(-c3ccnc(C)c3)nc2n1CC(=O)NC12CC(C3CC3)(C1)C2 [Compound I-84, N-{3-cyclopropylbicyclo[1.1.1]pentan-1-yl}-2-{5-ethyl-6-[(1S,6S)-5-(5-hydroxy-6-methylpyrimidine-4-carbonyl)-2,5-diazabicyclo[4.2.0]octan-2-yl]-2-(2-methylpyridin-4-yl)-7-oxo-2H,4H,7H-[1,2,3]triazolo[4,5-b]pyridin-4-yl}acetamide]	5 to 50	≤ 500	
CCc1c(N2CCN(C(=O)c3c(OC)ncc(C)c3O)[C@H]3CC[C@@H]32)c(=O)c2nn(-c3ccnc(OC)c3)nc2n1CC(=O)NC12CC(C(F)(F)F)(C1)C2 [Compound I-117, 2-{5-ethyl-6-[(1S,6S)-5-(4-hydroxy-2-methoxy-5-methylpyridine-3-carbonyl)-2,5-diazabicyclo[4.2.0]octan-2-yl]-2-(2-methoxypyridin-4-yl)-7-oxo-2H,4H,7H-[1,2,3]triazolo[4,5-b]pyridin-4-yl}-N-[3-(trifluoromethyl)bicyclo[1.1.1]pentan-1-yl]acetamide]	5 to 50		≤ 500
CCc1c(N2CCN(C(=O)c3c(OC)ncc(C)c3O)CC2)c(=O)c2nn(C3=CCOCC3)nc2n1CC(=O)NC12CC(C(C)C)(C1)C2 [Compound I-111, 2-[2-(3,6-dihydro-2H-pyran-4-yl)-5-ethyl-6-[4-(4-hydroxy-2-methoxy-5-methylpyridine-3-carbonyl)piperazin-1-yl]-7-oxo-2H,4H,7H-[1,2,3]triazolo[4,5-b]pyridin-4-yl]-N-[3-(propan-2-yl)bicyclo[1.1.1]pentan-1-yl]acetamide]	5 to 50		≤ 500
CCc1c(N2CCN(C(=O)c3ncnc(C)c3O)CC2)c(=O)c2nn(-c3ccnc(OC)c3)nc2n1CC(=O)NC12CC(C(F)(F)F)(C1)C2 [Compound I-151, 2-{5-ethyl-6-[4-(5-hydroxy-6-methylpyrimidine-4-carbonyl)piperazin-1-yl]-2-(2-methoxypyridin-4-yl)-7-oxo-2H,4H,7H-[1,2,3]triazolo[4,5-b]pyridin-4-yl}-N-[3-(trifluoromethyl)bicyclo[1.1.1]pentan-1-yl]acetamide]	5 to 50		500 to 2000
CCc1c(N2CCN(C(=O)c3c(OC)ncc(C)c3O)CC2)c(=O)c2nn(-c3ccnc(OC)c3)nc2n1CC(=O)NC1CC2(C1)CC(F)(F)C2 [Compound I-104, N-{6,6-difluorospiro[3.3]heptan-2-yl}-2-{5-ethyl-6-[4-(4-hydroxy-2-methoxy-5-methylpyridine-3-carbonyl)piperazin-1-yl]-2-(2-methoxypyridin-4-yl)-7-oxo-2H,4H,7H-[1,2,3]triazolo[4,5-b]pyridin-4-yl}acetamide]	50 to 100		> 5000
CCc1c(N2CCN(C(=O)c3ncnc(C)c3O)[C@H]3CC[C@@H]32)c(=O)c2nn(C3CC3)nc2n1CC(=O)NC12CC(C3CC3)(C1)C2 [Compound I-32, 2-{2-cyclopropyl-5-ethyl-6-[(1S,6S)-5-(5-hydroxy-6-methylpyrimidine-4-carbonyl)-2,5-diazabicyclo[4.2.0]octan-2-yl]-7-oxo-2H,4H,7H-[1,2,3]triazolo[4,5-b]pyridin-4-yl}-N-{3-cyclopropylbicyclo[1.1.1]pentan-1-yl}acetamide]	5 to 50		500 to 2000
CCc1c(N2CCN(C(=O)c3c(O)ccc4ncoc34)CC2)c(=O)c2nn(-c3ccnc(OC)c3)nc2n1CC(=O)NC12CC(CC)(C1)C2 [Compound I-142, 2-{5-ethyl-6-[4-(6-hydroxy-1,3-benzoxazole-7-carbonyl)piperazin-1-yl]-2-(2-methoxypyridin-4-yl)-7-oxo-2H,4H,7H-[1,2,3]triazolo[4,5-b]pyridin-4-yl}-N-{3-ethylbicyclo[1.1.1]pentan-1-yl}acetamide]	5 to 50		≤ 500
CCc1c(N2CCN(C(=O)c3ncnc(C)c3O)[C@H]3CC[C@@H]32)c(=O)c2nn(C3CC4(COC4)C3)nc2n1CC(=O)NC12CC(C(C)C)(C1)C2 [Compound I-160, 2-{5-ethyl-6-[(1S,6S)-5-(5-hydroxy-6-methylpyrimidine-4-carbonyl)-2,5-diazabicyclo[4.2.0]octan-2-yl]-2-{2-oxaspiro[3.3]heptan-6-yl}-7-oxo-2H,4H,7H-[1,2,3]triazolo[4,5-b]pyridin-4-yl}-N-[3-(propan-2-yl)bicyclo[1.1.1]pentan-1-yl]acetamide]	5 to 50		2000 to 5000
CCc1c(N2CCN(C(=O)c3cc4cc[nH]c4nc3OC)[C@H]3CC[C@@H]32)c(=O)c2nn(C3=CCOCC3)nc2n1CC(=O)NC12CC(C(C)C)(C1)C2 [Compound I-157, 2-[2-(3,6-dihydro-2H-pyran-4-yl)-5-ethyl-6-[(1S,6S)-5-{6-methoxy-1H-pyrrolo[2,3-b]pyridine-5-carbonyl}-2,5-diazabicyclo[4.2.0]octan-2-yl]-7-oxo-2H,4H,7H-[1,2,3]triazolo[4,5-b]pyridin-4-yl]-N-[3-(propan-2-yl)bicyclo[1.1.1]pentan-1-yl]acetamide]	5 to 50		≤ 500
CCc1c(N2CCN(C(=O)c3ncnc(C)c3O)[C@H]3CC[C@@H]32)c(=O)c2nn(C3=CCOCC3)nc2n1CC(=O)NC12CC(C(C)C)(C1)C2 [Compound I-18, 2-(2-(3,6-dihydro-2H-pyran-4-yl)-5-ethyl-6-((1S,6S)-5-(5-hydroxy-6-methylpyrimidine-4-carbonyl)-2,5-diazabicyclo[4.2.0]octan-2-yl)-7-oxo-2,7-dihydro-4H-[1,2,3]triazolo[4,5-b]pyridin-4-yl)-N-(3-isopropylbicyclo[1.1.1]pentan-1-yl)acetamide]	5 to 50		≤ 500
CCc1c(N2CCN(C(=O)c3ncnc(C)c3O)[C@H]3CC[C@@H]32)c(=O)c2nn(-c3ccn(C)n3)nc2n1CC(=O)NC12CC(C(C)C)(C1)C2 [Compound I-187, 2-{5-ethyl-6-[(1S,6S)-5-(5-hydroxy-6-methylpyrimidine-4-carbonyl)-2,5-diazabicyclo[4.2.0]octan-2-yl]-2-(1-methyl-1H-pyrazol-3-yl)-7-oxo-2H,4H,7H-[1,2,3]triazolo[4,5-b]pyridin-4-yl}-N-[3-(propan-2-yl)bicyclo[1.1.1]pentan-1-yl]acetamide]	5 to 50		≤ 500
CCc1c(N2CCN(C(=O)c3c(OC)ncc(C)c3O)[C@H]3CC[C@@H]32)c(=O)c2nn(C3=CCOCC3)nc2n1CC(=O)Nc1ccc(C(F)(F)F)cc1Cl [Compound I-23, N-(2-chloro-4-(trifluoromethyl)phenyl)-2-(2-(3,6-dihydro-2H-pyran-4-yl)-5-ethyl-6-((1S,6S)-5-(4-hydroxy-2-methoxy-5-methylnicotinoyl)-2,5-diazabicyclo[4.2.0]octan-2-yl)-7-oxo-2,7-dihydro-4H-[1,2,3]triazolo[4,5-b]pyridin-4-yl)acetamide]	≤ 5		≤ 500
CCc1c([C@]23CCN(C(=O)c4ncnc(C)c4O)C[C@H]2C3)c(=O)c2nn(-c3ccnc(OC)c3)nc2n1CC(=O)NC12CC(C(C)C)(C1)C2 (relative stereo) [Compound I-41, rel-2-{5-ethyl-6-[(1R,6S)-3-(5-hydroxy-6-methylpyrimidine-4-carbonyl)-3-azabicyclo[4.1.0]heptan-6-yl]-2-(2-methoxypyridin-4-yl)-7-oxo-2H,4H,7H-[1,2,3]triazolo[4,5-b]pyridin-4-yl}-N-[3-(propan-2-yl)bicyclo[1.1.1]pentan-1-yl]acetamide]	5 to 50		2000 to 5000
CCc1c(N2CCN(C(=O)c3c(OC)ncc(C)c3O)[C@H]3CC[C@@H]32)c(=O)c2nn(-c3ccnc(C)c3)nc2n1CC(=O)NC12CC(C3CC3)(C1)C2 [Compound I-74, N-{3-cyclopropylbicyclo[1.1.1]pentan-1-yl}-2-{5-ethyl-6-[(1S,6S)-5-(4-hydroxy-2-methoxy-5-methylpyridine-3-carbonyl)-2,5-diazabicyclo[4.2.0]octan-2-yl]-2-(2-methylpyridin-4-yl)-7-oxo-2H,4H,7H-[1,2,3]triazolo[4,5-b]pyridin-4-yl}acetamide]	5 to 50		≤ 500
CCc1c(N2CCN(C(=O)c3c(OC)ncc(C)c3O)CC2)c(=O)c2nn(-c3ccnc(C)c3)nc2n1CC(=O)NC12CC(C(C)C)(C1)C2 [Compound I-130, 2-{5-ethyl-6-[4-(4-hydroxy-2-methoxy-5-methylpyridine-3-carbonyl)piperazin-1-yl]-2-(2-methylpyridin-4-yl)-7-oxo-2H,4H,7H-[1,2,3]triazolo[4,5-b]pyridin-4-yl}-N-[3-(propan-2-yl)bicyclo[1.1.1]pentan-1-yl]acetamide]	5 to 50		≤ 500
CCc1c(N2CCN(C(=O)c3ncnc(C)c3O)[C@H]3CC[C@@H]32)c(=O)c2nn(-c3ccnc(OC)c3)nc2n1CC(=O)Nc1ccc(C(F)F)cc1Cl [Compound I-82, N-[2-chloro-4-(difluoromethyl)phenyl]-2-{5-ethyl-6-[(1S,6S)-5-(5-hydroxy-6-methylpyrimidine-4-carbonyl)-2,5-diazabicyclo[4.2.0]octan-2-yl]-2-(2-methoxypyridin-4-yl)-7-oxo-2H,4H,7H-[1,2,3]triazolo[4,5-b]pyridin-4-yl}acetamide]	≤ 5		≤ 500
